In patent US11730712B2, “Functionalized long-chain hydrocarbon mono- and di-carboxylic acids and derivatives thereof, and their use for the prevention or treatment of disease” (ESPERVITA THERAPEUTICS, INC., priority 2021, dated 2023):

Tested on: liver fibrosis gene panel (770 genes)
Experiment: Nanostring nCounter Fibrosis panel gene expression in liver of DEN-injected mice
Format: in vivo, mouse
Procedure: Nanostring Analysis. RNA was extracted from paired liver and tumor tissue from vehicle, Compound I-1 (100 mg/kg) and Compound I-32 (100 mg/kg) treated mice using an RNeasy kit (Qiagen, Calif., USA) as per manufacturer's protocol. All RNA samples passed the BioAnalyzer quality control test. The expression of target genes in liver and tumor were analyzed using the nCounter Fibrosis and Cancer Panel (NanoString Technologies, Inc., WA, USA), respectively according to manufacturer's protocol at the McMaster Genomics Facility. Technical and biological normalization against global geometric mean was performed in nSolver 4.0 software (NanoString Technologies). Technical normalization was performed in the nSolver software (version 4.0.70) by normalizing sample target raw counts to the geometric mean of positive control spike-ins. Biological normalization was performed by normalizing sample target raw counts to the geometric mean of selected housekeeping genes (Ppia, Nubp1, Nol7, Armh3, Rplp0, Cnot10, Pgk1, and Acad9). Pathway scores were calculated as the first principal component of the normalized expression values for all genes in each pathway and samples were compiled according to experimental groups to determine average pathway scores. Statistical significance was calculated between experimental groups using multiple t-tests and p-values were corrected for multiple comparisons using Benjamin-Hochberg false discovery rate.
Molecular analysis. To identify the pathways modulated in the liver and tumor tissue, nanostring analysis of fibrosis and cancer, pathways, respectively were completed in an n=8 mice treated with vehicle or Compound I-32 or Compound I-1 at 100 mg/kg.

CC(C)(CCCCc1cccc(CCCCC(C)(C)C(=O)O)c1)C(=O)O [Compound I-32, 6-[3-(5-carboxy-5-methylhexyl)-phenyl]-2,2-dimethylhexanoic acid]
number of genes downregulated (100 mg/kg, 4 weeks): 159 | number of genes upregulated (100 mg/kg, 4 weeks): 71 | number of genes with altered expression relative to vehicle controls (770 genes measured) (100 mg/kg, 4 weeks): 231 | Adh1 Log2FC (NM_007409, 100 mg/kg, vs vehicle): 0.536 | Aldh3a2 Log2FC (NM_007437, 100 mg/kg, vs vehicle): 0.869 | Prdx6 Log2FC (NM_007453, 100 mg/kg, vs vehicle): −0.595 | Apoa4 Log2FC (NM_007468, 100 mg/kg, vs vehicle): −3.4 | Atp6v1e1 Log2FC (NM_007510, 100 mg/kg, vs vehicle): 0.153 | Casp7 Log2FC (NM_007611, 100 mg/kg, vs vehicle): −0.31 | Cd36 Log2FC (NM_007643, 100 mg/kg, vs vehicle): 1.02 | Cdh2 Log2FC (NM_007664, 100 mg/kg, vs vehicle): −0.165 | Cebpa Log2FC (NM_007678, 100 mg/kg, vs vehicle): −0.413 | Cfi Log2FC (NM_007686, 100 mg/kg, vs vehicle): −0.395 | Chil1 Log2FC (NM_007695, 100 mg/kg, vs vehicle): 2.58 | Col1a2 Log2FC (NM_007743, 100 mg/kg, vs vehicle): −0.588 | Cox6a1 Log2FC (NM_007748, 100 mg/kg, vs vehicle): 0.336 | Cox7c Log2FC (NM_007749, 100 mg/kg, vs vehicle): 0.459 | Crp Log2FC (NM_007768, 100 mg/kg, vs vehicle): −0.857 | Ctsb Log2FC (NM_007798, 100 mg/kg, vs vehicle): −0.216 | Cybb Log2FC (NM_007807, 100 mg/kg, vs vehicle): −0.644 | Cyp2c29 Log2FC (NM_007815, 100 mg/kg, vs vehicle): −0.646 | Cyp7a1 Log2FC (NM_007824, 100 mg/kg, vs vehicle): −1.38 | Diaph1 Log2FC (NM_007858, 100 mg/kg, vs vehicle): −0.265 | Ephx2 Log2FC (NM_007940, 100 mg/kg, vs vehicle): 0.562 | F5 Log2FC (NM_007976, 100 mg/kg, vs vehicle): −0.29 | Fas Log2FC (NM_007987, 100 mg/kg, vs vehicle): 0.226 | Fasn Log2FC (NM_007988, 100 mg/kg, vs vehicle): 1.09 | Slc37a4 Log2FC (NM_008063, 100 mg/kg, vs vehicle): −0.843 | Gas1 Log2FC (NM_008086, 100 mg/kg, vs vehicle): −0.696 | Gpc4 Log2FC (NM_008150, 100 mg/kg, vs vehicle): −0.381 | Hadh Log2FC (NM_008212, 100 mg/kg, vs vehicle): 0.258 | Hsd11b1 Log2FC (NM_008288, 100 mg/kg, vs vehicle): −1.23 | Hsd17b4 Log2FC (NM_008292, 100 mg/kg, vs vehicle): 0.446 | Irf8 Log2FC (NM_008320, 100 mg/kg, vs vehicle): −0.357 | Il10ra Log2FC (NM_008348, 100 mg/kg, vs vehicle): −0.578 | Itch Log2FC (NM_008395, 100 mg/kg, vs vehicle): −0.295 | Kikb1 Log2FC (NM_008455, 100 mg/kg, vs vehicle): −0.217 | Lpl Log2FC (NM_008509, 100 mg/kg, vs vehicle): 1.8 | Lrp1 Log2FC (NM_008512, 100 mg/kg, vs vehicle): −0.376 | Cd180 Log2FC (NM_008533, 100 mg/kg, vs vehicle): −0.606 | Masp1 Log2FC (NM_008555, 100 mg/kg, vs vehicle): −0.26 | Anapc1 Log2FC (NM_008569, 100 mg/kg, vs vehicle): −0.316 | Mmp12 Log2FC (NM_008605, 100 mg/kg, vs vehicle): −2.05 | Mmp14 Log2FC (NM_008608, 100 mg/kg, vs vehicle): −0.465 | Nedd8 Log2FC (NM_008683, 100 mg/kg, vs vehicle): 0.0875 | Pcx Log2FC (NM_008797, 100 mg/kg, vs vehicle): −0.521 | Plcb3 Log2FC (NM_008874, 100 mg/kg, vs vehicle): −0.297 | Plg Log2FC (NM_008877, 100 mg/kg, vs vehicle): −0.296 | Ppm1a Log2FC (NM_008910, 100 mg/kg, vs vehicle): 0.136 | Map2k1 Log2FC (NM_008927, 100 mg/kg, vs vehicle): −0.177 | Saa1/2 Log2FC (NM_009117, 100 mg/kg, vs vehicle): −1.96 | Scd1 Log2FC (NM_009127, 100 mg/kg, vs vehicle): 0.602 | Scd2 Log2FC (NM_009128, 100 mg/kg, vs vehicle): 0.949 | Sorbs1 Log2FC (NM_009166, 100 mg/kg, vs vehicle): −0.302 | Sem1 Log2FC (NM_009169, 100 mg/kg, vs vehicle): 0.298 | Ssr4 Log2FC (NM_009279, 100 mg/kg, vs vehicle): −0.228 | Tgfbr1 Log2FC (NM_009370, 100 mg/kg, vs vehicle): −0.309 | Traf2 Log2FC (NM_009422, 100 mg/kg, vs vehicle): −0.346 | Tnfsf10 Log2FC (NM_009425, 100 mg/kg, vs vehicle): −0.692 | Axl Log2FC (NM_009465, 100 mg/kg, vs vehicle): −0.418 | Ap1g1 Log2FC (NM_009677, 100 mg/kg, vs vehicle): −0.189 | Apoa1 Log2FC (NM_009692, 100 mg/kg, vs vehicle): −0.481 | Apob Log2FC (NM_009693, 100 mg/kg, vs vehicle): −0.227 | Bcl2l1 Log2FC (NM_009743, 100 mg/kg, vs vehicle): −0.248 | Serping1 Log2FC (NM_009776, 100 mg/kg, vs vehicle): −0.66 | C3ar1 Log2FC (NM_009779, 100 mg/kg, vs vehicle): −0.825 | Calm1 Log2FC (NM_009790, 100 mg/kg, vs vehicle): −0.327 | Casp3 Log2FC (NM_009810, 100 mg/kg, vs vehicle): −0.237 | Serpinh1 Log2FC (NM_009825, 100 mg/kg, vs vehicle): −0.531 | Cdk4 Log2FC (NM_009870, 100 mg/kg, vs vehicle): 0.181 | Cfh Log2FC (NM_009888, 100 mg/kg, vs vehicle): −1.41 | Col3a1 Log2FC (NM_009930, 100 mg/kg, vs vehicle): −0.679 | Csnk2b Log2FC (NM_009975, 100 mg/kg, vs vehicle): 0.0913 | Ctsd Log2FC (NM_009983, 100 mg/kg, vs vehicle): 0.331 | Cyp4a10/31/32 Log2FC (NM_010011, 100 mg/kg, vs vehicle): 2.88 | Fcer1g Log2FC (NM_010185, 100 mg/kg, vs vehicle): −0.427 | Fn1 Log2FC (NM_010233, 100 mg/kg, vs vehicle): −0.584 | Got2 Log2FC (NM_010325, 100 mg/kg, vs vehicle): 0.156 | H2-Aa Log2FC (NM_010378, 100 mg/kg, vs vehicle): −0.4 | H2-D1 Log2FC (NM_010380, 100 mg/kg, vs vehicle): −0.175 | H2-T23 Log2FC (NM_010398, 100 mg/kg, vs vehicle): −0.224 | Hck Log2FC (NM_010407, 100 mg/kg, vs vehicle): −0.667 | Hif1a Log2FC (NM_010431, 100 mg/kg, vs vehicle): 0.283 | Hmox1 Log2FC (NM_010442, 100 mg/kg, vs vehicle): −0.484 | Hsp90aa1 Log2FC (NM_010480, 100 mg/kg, vs vehicle): 0.361 | Icam1 Log2FC (NM_010493, 100 mg/kg, vs vehicle): −0.382 | Ikbkb Log2FC (NM_010546, 100 mg/kg, vs vehicle): −0.526 | II6st Log2FC (NM_010560, 100 mg/kg, vs vehicle): −0.296 | Ilk Log2FC (NM_010562, 100 mg/kg, vs vehicle): −0.109 | Itgb1 Log2FC (NM_010578, 100 mg/kg, vs vehicle): 0.143 | Fabp5 Log2FC (NM_010634, 100 mg/kg, vs vehicle): 1.44 | Lepr Log2FC (NM_010704, 100 mg/kg, vs vehicle): 0.604 | Psmb8 Log2FC (NM_010724, 100 mg/kg, vs vehicle): −0.801 | Lyn Log2FC (NM_010747, 100 mg/kg, vs vehicle): −0.295 | Marco Log2FC (NM_010766, 100 mg/kg, vs vehicle): −1.54 | P4hb Log2FC (NM_011032, 100 mg/kg, vs vehicle): −0.765 | Pck1 Log2FC (NM_011044, 100 mg/kg, vs vehicle): −1.99 | Pitp Log2FC (NM_011125, 100 mg/kg, vs vehicle): 1.37 | Pparg Log2FC (NM_011146, 100 mg/kg, vs vehicle): −0.592 | Prkdc Log2FC (NM_011159, 100 mg/kg, vs vehicle): −0.525 | Pros1 Log2FC (NM_011173, 100 mg/kg, vs vehicle): −0.208 | Lgmn Log2FC (NM_011175, 100 mg/kg, vs vehicle): −0.601 | Ptprc Log2FC (NM_011210, 100 mg/kg, vs vehicle): −0.47 | S100a4 Log2FC (NM_011311, 100 mg/kg, vs vehicle): −0.79 | Serpinf1 Log2FC (NM_011340, 100 mg/kg, vs vehicle): −0.208 | Sod1 Log2FC (NM_011434, 100 mg/kg, vs vehicle): 0.284 | Srebf1 Log2FC (NM_011480, 100 mg/kg, vs vehicle): −0.634 | Thbs2 Log2FC (NM_011581, 100 mg/kg, vs vehicle): −1.01 | Timp2 Log2FC (NM_011594, 100 mg/kg, vs vehicle): −0.451 | Tjp2 Log2FC (NM_011597, 100 mg/kg, vs vehicle): 0.199 | Tln1 Log2FC (NM_011602, 100 mg/kg, vs vehicle): −0.355 | Vegfb Log2FC (NM_011697, 100 mg/kg, vs vehicle): 0.521 | Adh4 Log2FC (NM_011996, 100 mg/kg, vs vehicle): −0.855 | Bcap31 Log2FC (NM_012060, 100 mg/kg, vs vehicle): −0.145 | C9 Log2FC (NM_013485, 100 mg/kg, vs vehicle): −1.25
